In patent US20230346727A1, “COMPOUNDS FOR THE TREATMENT OF HEMOPHILIA” (UNIVERSITE GRENOBLE ALPES, priority 2020, published 2023):

Legend:
[1] = tested on: plasma from the hemophiliac patient (hemophiliac patient A); assay: Second ex vivo thrombin generation test (CAT analyzer, PPP Reagent LOW); format: biochemical, human; details: for Amount of thrombin at the maximum of the peak, normalized to the thrombin peak obtained with adapalene: 50 μM final in plasma (positive control: factor VIII 1 IU/mL), HEPES buffer, negative control 0.13 ± 0.02; for peak of generated thrombin compared to negative and positive control, in words: 50 μM final in plasma
Description: A second thrombin generation test is carried out, for the compounds H27, H31, H32, H35, H38, H39 and the compound H24.
The thrombin generation test was carried out at 37° C. using a CAT analyzer (Diagnostica Stago) with the PPP Reagent LOW reagent (Diagnostica Stago) in accordance with the manufacturer's instructions and according to the method established by Pr. Hemker in 2003. PPP Reagent LOW is a mixture of tissue factor (TF) 1 pM with phospholipid vesicles (PL, 4 μM). The test is triggered by the addition of a mixture of calcium+fluorescent substrate (ZGGR-AMC) (FluCa mixture).
From a technical point of view, 80 μL of surcharged plasma sample is added to 20 μL of «initiator complex» (PPP Reagent LOW) and incubated for 10 min at 37° C. Then, the reaction is triggered by adding 20 μL of FluCa (mixture of CaCl2 and ZGGR-AMC substrate) and the fluorescence signal is measured over time. Each test is performed in triplicate.
For each tested molecule, 247 μL of plasma from the hemophiliac patient were surcharged with 13 μL of a solution containing different amounts of compound (molecule to be tested, factor VIII or dilution buffer) to obtain the desired final concentration (systematic dilution of the molecule to be tested in the plasma at 1/20). For example, to obtain the final concentration of 50 μM in plasma, 13 μL of a 1 mM solution was added to 247 μL of plasma. In parallel with the tests on the different chemical compounds, the plasma of a hemophiliac patient is surcharged with the same buffer for diluting the compound, an 8% solution of dimethyl sulfoxide (DMSO), as a negative control (0.4% of final DMSO) in order to obtain the basal level of thrombin generation of the used plasma. The positive control is the same plasma surcharged with plasma factor VIII (Factane, LFB, France) at a concentration of 1 IU/mL (or 100% factor VIII) in order to obtain the expected «normal» level of thrombin generation used plasma.
For this example, solutions of adapalene and 1 mM compounds were prepared with the buffer (18 mM HEPES, 135 mM NaCl, pH 7.35) instead of water as in Example 1. This modification has made it possible to increase the amount of thrombin generated by the plasma of the hemophiliac patient A in the presence of 50 μM of adapalene.
Compounds were tested at a final concentration of 50 μM in plasma, and signal was measured over time. The obtained results, expressed as the amount of thrombin measured at the maximum of the peak obtained and normalized to the thrombin peak obtained with adapalene, are shown in Table 1 below: […]

[2] = tested on: plasma from a patient suffering from severe hemophilia A; assay: Ex vivo thrombin generation test (STA-Genesia, STG-Bleedscreen reagent); format: biochemical, human
Description: The thrombin generation test consists of measuring the kinetics of appearance of this key coagulation factor in the plasma over time. After activation of coagulation by calcium, the amount of thrombin changes over time. It is measured using a synthetic thrombin substrate coupled to a fluorescent molecule (ZGGR-AMC). The main parameters determined are the latency time before observing an increase in thrombin generation, the thrombin peak corresponding to the maximum amount of thrombin generated and the ETP (endogenous thrombin potential) corresponding to the total amount of thrombin generated in plasma during the test. In the case of a patient with hemophilia A, the generation of thrombin is low or even almost zero for some patients. Adding the missing coagulation factor (factor VIII) to its physiological level (1 Ul/mL or 100%) restores coagulation in patients and recovers a «normal» thrombin generation. Thus, the thrombin generation test makes it possible to globally evaluate the coagulation rate of a given plasma and in the present case, it makes it possible to evaluate the capacity of a molecule to restore or not restore coagulation in a hemophiliac patient.
For this example, several ex vivo thrombin generation tests were carried out on plasma from a patient suffering from severe hemophilia A, therefore devoid of factor FVIII, in order to evaluate the effect on coagulation of a compound of general formula (I), more particularly adapalene, of formula (V) above, on the kinetics and the generated amount of thrombin.
Hemophiliac patient plasma was obtained from Cryopep company (Montpellier, France).
Adapalene is commercially available, in particular from Prestwick company. It was dissolved in an 8% dimethylsulfoxide (DMSO) solution then diluted to a concentration of 1 mM and then tested at the following concentrations: 50 μM, 5 μM, 0.5 μM (final concentrations in plasma).
The thrombin generation test was performed at 37° C. using a fully automated STA-Genesia analyzer (Diagnostica Stago) with STG®-Bleedscreen reagent (Diagnostica Stago) according to the manufacturer's instructions and according to the method established by Pr. Hemker in 2003. The STG®-Bleedscreen reagent is a mixture of tissue factor (TF) at low concentration with phospholipid vesicles (PL). The test is triggered by the addition of a mixture of calcium+fluorescent substrate (ZGGR-AMC) (STG®-FluoStart mixture).
From a technical point of view, 4 volumes of surcharged plasma sample are added to 1 volume of «initiator complex» (STG®-Bleedscreen) and incubated for 10 min at 37° C. Then, the reaction is triggered by adding 1 volume of STG®-FluoStart (mixture of CaCl2 and ZGGR-AMC substrate) and the fluorescence signal is measured over time. Each test is performed in duplicate
For each tested molecule, 475 μL of plasma from the hemophiliac patient were surcharged with 25 μL of a solution containing different amounts of compound (molecule to be tested, factor VIII or dilution buffer) to obtain the desired final concentration (systematic dilution of the molecule to be tested in the plasma at 1/20). For example, to obtain the final concentration of 50 μM in plasma, 25 μL of a 1 mM solution was added to 475 μL of plasma. The preparation of 500 μL of surcharged plasma allows to perform the 2 thrombin generation tests (duplicate), the 2 calibration tests (duplicate) and takes into account the dead volume of the automaton.
In parallel with the tests on the different chemical compounds, the plasma of a hemophiliac patient is surcharged with the same buffer for diluting the compound, an 8% solution of dimethylsulfoxide (DMSO), as a negative control (0.4% of final DMSO) in order to obtain the basal level of thrombin generation of the used plasma. The positive control is the same plasma surcharged with plasma factor VIII (Factane, LFB, France) at a concentration of 1 IU/mL (or 100% factor VIII) in order to obtain the expected «normal» level of used thrombin generation plasma. […]

[3] = target: T1, FXa inhibition by TFPI-K1K2 (truncated human TFPI) (Homo sapiens, UniProt P10646, F53G); assay: FXa activity assay: release of FXa inhibition by TFPI-K1K2 (colorimetric, PNAPEP-1025); format: biochemical; details: 50 μM, TFPI-K1K2 30 nM, FXa 0.5 nM
T1 sequence (P10646 29-182 F53G): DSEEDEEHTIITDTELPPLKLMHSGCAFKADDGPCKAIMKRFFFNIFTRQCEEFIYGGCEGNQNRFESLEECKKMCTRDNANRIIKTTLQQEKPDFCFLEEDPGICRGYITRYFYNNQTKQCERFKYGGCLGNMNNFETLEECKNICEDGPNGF
Description: The ability of adapalene to reverse FXa inhibition by TFPI was assessed by using a low TFPI concentration FXa activity assay. For this test, a truncated human TFPI (TFPI-K1K2) was used, which is common to both TFPI isoforms α and β, having the amino acid sequence SEQ ID No 1:
Adapalene was tested for its ability to release FXa inhibition by TFPI-K1K2 using a colorimetric assay in a 96-well plate format. All steps were performed at room temperature. FXa inhibition by increasing TFPI-K1K2 concentrations was first analyzed to determine the best detection conditions. […]
Briefly, 14.5 μL of 350 μM adapalene, prediluted in the buffer described above, was added to 62.5 μL 50 nM TFPI-K1K2 and mixed together by aspiration/dispensing. After 10 min of incubation at room temperature, 6.25 μL of 8 nM FXa was added, the mixture was mixed again, and the activity of uninhibited FXa was quantified by the addition of 18 μL of PNAPEP-1025 (Cryopep), an FXa substrate, diluted to 2 mM in H2O. […]
The plates were centrifuged to remove any bubbles and the optical density (OD) at 405 nm, corresponding to the hydrolysis of the PNAPEP-1025 substrate, was measured for 1 h at room temperature. The absorbance value at t0, corresponding to an absorbance of 0.05, was subtracted and the […] restoration value was reported as a percentage of the positive control.

[4] = adapalene 0.5 μM final in severe hemophilia A plasma
[5] = adapalene 5 μM final in severe hemophilia A plasma
[6] = adapalene 50 μM final in severe hemophilia A plasma

| Compound | Amount of thrombin at the maximum of the peak, normalized to the thrombin peak obtained with adapalene [1] | peak of generated thrombin compared to negative and positive control, in words [1] | further results |
| --- | --- | --- | --- |
| C#CCOc1ccc(-c2ccc3cc(C(=O)O)ccc3c2)cc1C12CC3CC(CC(C3)C1)C2 [Compound H35, 6-(3-(adamantan-1-yl)-4-(prop-2-yn-1-yloxy)phenyl)-2-naphthoic acid] | 0.53 | – | – |
| COc1ccc(-c2ccc3cc(CS(=O)(=O)O)ccc3c2)cc1C12CC3CC(CC(C3)C1)C2 [Compound H39, (6-(3-(adamantan-1-yl)-4-methoxyphenyl)naphthalen-2-yl)methanesulfonic acid] | 1.22 | much higher | – |
| COc1ccc(-c2ccc(C(=O)NCC(=O)O)cc2)cc1C12CC3CC(CC(C3)C1)C2 [Compound H24, 2-(3′-(adamantan-1-yl)-4′-methoxy-[1,1′-biphenyl]-4-ylcarboxamido)acetic acid] | 0.23 | – | – |
| COc1ccc(N2CCc3cc(C(=O)O)ccc3C2)cc1C12CC3CC(CC(C3)C1)C2 [Compound H27, 2-(3-(adamantan-1-yl)-4-methoxyphenyl)-1,2,3,4-tetrahydroisoquinoline-6 carboxylic acid] | 0.51 | – | – |
| COc1ccc(-c2ccc3cc(C(=O)O)cc(O)c3c2)cc1C12CC3CC(CC(C3)C1)C2 [Compound H38, 6-(3-(adamantan-1-yl)-4-methoxyphenyl)-4-hydroxy-2-naphthoic acid] | 0.96 | much higher | – |
| COc1ccc(-c2ccc3nc(C(=O)O)ccc3c2)cc1C12CC3CC(CC(C3)C1)C2 [Compound H31, 6-(3-(adamantan-1-yl)-4-m2thoxyph2nyl)quinoline-2-carboxylic acid] | 0.62 | – | – |
| COc1ccc(-c2ccc3cc(C(=O)O)ccc3c2)cc1C12C[C@H]3C[C@@H](C1)C[C@@H](C2)C3 [adapalene, 6-[3-(1-adamantyl)-4-methoxyphenyl]naphthalene-2-carboxylic acid] | 1 | much higher | generation of thrombin (peak and ETP) compared to negative and positive control, in words ([2]; 50 μM in severe hemophilia A plasma, FIG. 3 and FIG. 4): increase in the generation of thrombin compared to the negative control; ETP (endogenous thrombin potential) [2, 4]: 455 nM·min; thrombin peak [2, 4]: 29.7 nM; ETP (endogenous thrombin potential) [2, 5]: 504 nM·min; thrombin peak [2, 5]: 39 nM; ETP (endogenous thrombin potential) [2, 6]: 588 nM·min; thrombin peak [2, 6]: 55 nM; coagulation restoration percentage (percentage of the positive control) [3]: approximately 14%; optical density (OD) at 405 nm, hydrolysis of PNAPEP-1025 by uninhibited FXa ([3]; negative control OD 0.048, positive control OD 0.406): 0.105 |
| COc1ccc(-c2ccc3cc(C(=O)O)cnc3c2)cc1C12CC3CC(CC(C3)C1)C2 [Compound H32, 7-(3-(adamantan-1-yl)-4-methoxyphenyl)quinoline-3-carboxylic acid] | 0.55 | – | – |
